As usually defined, the inhibition is the share of the control response that was lost under treatment. The term IC50 denotes the concentration that gives 50% inhibition.

The target in data set [1] is T1, smooth muscle voltage-gated, L-type (Cav1.2 or α1C subunit) Ca^2+ channels (Mus musculus, UniProt Q01815).
T1 construct: KCl-induced contraction in isolated arteries; from tissue; host or cells: mouse mesenteric arteries
In words: KCl-induced contraction in isolated arteries. To be noted: FIG. 5 / FIG. 6 (25 μM). How it is done: (§1) Contractions obtained after 30 min. incubation with the test compounds (left portion of graph), and after a 60-min. wash-out (right portion of graph).
(§2) To identify compounds with enhanced L-type Ca^2+ channel blocker activity, several compounds were either purchased or synthesized, and then tested for their ability to inhibit: (1) KCl-induced contraction in isolated arteries; (2) KCl-induced Ca^2+ signaling in fura-2 loaded arteries; and (3) KCl-induced Ca^2+ signaling in fura-2 loaded PC12 cells, all using art-recognized methods established in the applicants' laboratories (Roullet, 1993, 1994, 1995, 1997; De Lima, 1999). Arteries express smooth muscle voltage-gated, L-type (Cav1.2 or α1C subunit) Ca^2+ channels, whereas PC12 cells constitutively express the neuronal voltage-gated, L-type (Cav1.3) α1D subunit (Ertel, 2000).

The subject of data set [2] is withdrawal seizures in alcohol-dependent mice. In words: Predicted anti-seizure activity. It is filed as in vivo, mouse. The arrangement: key: la = long-acting; The ++ farnesol activity was arbitrary. The conditions noted are these: for Predicted anti-seizure activity: long-acting (la): duration flag in brackets.
A further data set concerns the target T2, L-type Ca^2+ channel (Mus musculus, UniProt Q01815).
T2 construct: KCl-induced contraction in isolated arteries; from tissue; host or cells: mouse mesenteric arteries
Briefly: Reversibility of inhibition of L-type Ca^2+ channel mediated arterial contraction after wash-out. The protocol: as §1
(§3) Moreover, farnesylamine is likely to be metabolized through pathways different from those involved in farnesol clearance.

Data set [3] addresses T3, human recombinant monoamine oxidase A (Homo sapiens, UniProt P21397).
T3 sequence (P21397 1-527): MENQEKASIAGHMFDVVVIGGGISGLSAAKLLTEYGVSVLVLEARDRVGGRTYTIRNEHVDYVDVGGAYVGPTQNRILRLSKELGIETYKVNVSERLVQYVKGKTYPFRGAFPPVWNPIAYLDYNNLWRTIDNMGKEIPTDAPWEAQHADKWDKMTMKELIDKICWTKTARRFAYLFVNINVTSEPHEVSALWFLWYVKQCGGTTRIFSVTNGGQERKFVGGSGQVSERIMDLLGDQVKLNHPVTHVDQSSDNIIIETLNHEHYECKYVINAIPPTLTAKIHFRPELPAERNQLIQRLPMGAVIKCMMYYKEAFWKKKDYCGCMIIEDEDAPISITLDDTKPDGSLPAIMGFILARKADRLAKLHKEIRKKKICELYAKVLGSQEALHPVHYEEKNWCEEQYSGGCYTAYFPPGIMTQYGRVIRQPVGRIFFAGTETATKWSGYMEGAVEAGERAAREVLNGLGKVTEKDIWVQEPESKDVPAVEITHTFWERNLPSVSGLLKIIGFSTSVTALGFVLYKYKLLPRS
In words: Monoamine oxidase substrate test. The class given is in vitro ADME. To be noted: rat liver mitochondrial membranes and human recombinant monoamine oxidase A and B.
Description: as §3

Data set [4] deals with ADH. In words: Metabolism / substrate recognition by ADH. The class given is in vitro ADME.
Data set [5] concerns the target T4, neuronal voltage-gated, L-type (Cav1.3) α1D subunit Ca^2+ channel (Rattus norvegicus, UniProt P27732).
T4 construct: KCl-induced intracellular Ca^2+ signaling in non-NGF treated PC12 cells loaded with fura-2; endogenous in cells; host or cells: PC12 cells (non-NGF treated)
Briefly: KCl-induced Ca^2+ signaling in fura-2 loaded PC12 cells. The class given is cell-based.
Description: According to particular aspects of the present invention, the alcohol group is essential for activity. Additionally, the activity of farnesol metabolites on neuronal voltage-gated L-type Ca^2+ channels was investigated. […] The Ca^2+ channel activity is expressed as % inhibition of KCl-induced intracellular Ca^2+ signaling in non-NGF differentiated PC12 cells loaded with fura-2 (see Materials and Methods under Example 2). The assayed molecules are: FPP—farnesyl pyrophosphate; FOH—all-trans farnesol; FCHO—all-trans farnesal; and FCOOH—all-trans farnesoic acid (prepared by Dr. McDougal).
as §2
Ca^2+ channel activity is expressed as % inhibition of KCl-induced intracellular Ca^2+ signaling in non-NGF treated PC12 cells loaded with fura-2.

A short description of a further data set: Storage stability. It is filed as physicochemical. The conditions noted are these: −20° C., pure form or ethanol solutions (typically 25 mM). The protocol:
According to the present invention, the synthesis of geranylresorcinol (GR) (4) is based on the condensation of geranyl bromide (1) and 3-hydroxyphenyl benzoate (2), followed by alkaline cleavage of the formed ester (3). The method generates pure GR with an overall yield of 40%. The compound is stable when stored at −20° C. either in its pure form or in ethanol solutions (typically prepared at 25 mM). Long-term storage may be associated with some darkening of the product, as typically observed with electron-rich phenols, but it is not associated with significant loss of activity (on arteries).

In the next data set the test system is microsomal FolDH. In words: Recognition by microsomal FolDH. It is filed as in vitro ADME.
Data set [6] has as its target T5, N-type Ca^2+ channel (α1B subunit) (Homo sapiens, UniProt Q00975).
T5 construct: expressed in transfected cells; host or cells: HEK cells
Briefly: Patch-clamp on HEK cells transfected with human α1B (Cav2.2) subunits. It is filed as cell-based. To be noted: at 5 min; Hp=−100 mV; 20 mM Ba^2+. How it is done:
FIGS. 4A and 4B show neuronal (α1D subunit) L-type Ca^2+ channel (Ca^2+ signaling in fura-2 loaded PC12 cells) (FIG. 4A); on neuronal (α1B subunit) N-type Ca^2+ channel (α1B-transfected HEK cells; as in Roullet, 1999) (FIG. 4B). Current-voltage relationship (IV) recording conditions were: holding potential (hp)=−100 mV; 20 mM Ba^2+. Inhibition of N-type currents was ˜90% at 5 min.
Experiments (FIG. 4) using patch-clamp techniques and HEK cells transfected with human α1B (Cav2.2) subunits further indicate that, like farnesol, retinol also blocks N-type calcium channels. FIGS. 4A and 4B show, according to preferred aspects of the present invention, the effect of all-trans retinol on: neuronal (α1D subunit) L-type Ca^2+ channel (Ca^2+ signaling in fura-2 loaded PC12 cells) (FIG. 4A); an on neuronal (α1B subunit) N-type Ca^2+ channel (α1B-transfected HEK cells; as in Roullet, 1999) (FIG. 4B). IV recording conditions were: Hp=−100 mV; 20 mM Ba^2+. Inhibition of N-type currents was ˜90% at 5 min.
(In general: Patch clamp records ionic current or voltage across a cell membrane.)

The subject of data set [7] is ADH. The conditions noted are these: cited from earlier work.
Data set [8] concerns the target T6, voltage-gated L-type Ca^2+ channels (Homo sapiens, UniProt Q13936).
T6 construct: host or cells: arteries / vascular smooth muscle cells
The conditions noted are these: cited from earlier work.

The target of data set [9] is T4, neuronal voltage-gated, L-type (Cav1.3) α1D subunit Ca^2+ channel. To be noted: PC12 cells; cited from earlier work.

T4 sequence (P27732 whole entry): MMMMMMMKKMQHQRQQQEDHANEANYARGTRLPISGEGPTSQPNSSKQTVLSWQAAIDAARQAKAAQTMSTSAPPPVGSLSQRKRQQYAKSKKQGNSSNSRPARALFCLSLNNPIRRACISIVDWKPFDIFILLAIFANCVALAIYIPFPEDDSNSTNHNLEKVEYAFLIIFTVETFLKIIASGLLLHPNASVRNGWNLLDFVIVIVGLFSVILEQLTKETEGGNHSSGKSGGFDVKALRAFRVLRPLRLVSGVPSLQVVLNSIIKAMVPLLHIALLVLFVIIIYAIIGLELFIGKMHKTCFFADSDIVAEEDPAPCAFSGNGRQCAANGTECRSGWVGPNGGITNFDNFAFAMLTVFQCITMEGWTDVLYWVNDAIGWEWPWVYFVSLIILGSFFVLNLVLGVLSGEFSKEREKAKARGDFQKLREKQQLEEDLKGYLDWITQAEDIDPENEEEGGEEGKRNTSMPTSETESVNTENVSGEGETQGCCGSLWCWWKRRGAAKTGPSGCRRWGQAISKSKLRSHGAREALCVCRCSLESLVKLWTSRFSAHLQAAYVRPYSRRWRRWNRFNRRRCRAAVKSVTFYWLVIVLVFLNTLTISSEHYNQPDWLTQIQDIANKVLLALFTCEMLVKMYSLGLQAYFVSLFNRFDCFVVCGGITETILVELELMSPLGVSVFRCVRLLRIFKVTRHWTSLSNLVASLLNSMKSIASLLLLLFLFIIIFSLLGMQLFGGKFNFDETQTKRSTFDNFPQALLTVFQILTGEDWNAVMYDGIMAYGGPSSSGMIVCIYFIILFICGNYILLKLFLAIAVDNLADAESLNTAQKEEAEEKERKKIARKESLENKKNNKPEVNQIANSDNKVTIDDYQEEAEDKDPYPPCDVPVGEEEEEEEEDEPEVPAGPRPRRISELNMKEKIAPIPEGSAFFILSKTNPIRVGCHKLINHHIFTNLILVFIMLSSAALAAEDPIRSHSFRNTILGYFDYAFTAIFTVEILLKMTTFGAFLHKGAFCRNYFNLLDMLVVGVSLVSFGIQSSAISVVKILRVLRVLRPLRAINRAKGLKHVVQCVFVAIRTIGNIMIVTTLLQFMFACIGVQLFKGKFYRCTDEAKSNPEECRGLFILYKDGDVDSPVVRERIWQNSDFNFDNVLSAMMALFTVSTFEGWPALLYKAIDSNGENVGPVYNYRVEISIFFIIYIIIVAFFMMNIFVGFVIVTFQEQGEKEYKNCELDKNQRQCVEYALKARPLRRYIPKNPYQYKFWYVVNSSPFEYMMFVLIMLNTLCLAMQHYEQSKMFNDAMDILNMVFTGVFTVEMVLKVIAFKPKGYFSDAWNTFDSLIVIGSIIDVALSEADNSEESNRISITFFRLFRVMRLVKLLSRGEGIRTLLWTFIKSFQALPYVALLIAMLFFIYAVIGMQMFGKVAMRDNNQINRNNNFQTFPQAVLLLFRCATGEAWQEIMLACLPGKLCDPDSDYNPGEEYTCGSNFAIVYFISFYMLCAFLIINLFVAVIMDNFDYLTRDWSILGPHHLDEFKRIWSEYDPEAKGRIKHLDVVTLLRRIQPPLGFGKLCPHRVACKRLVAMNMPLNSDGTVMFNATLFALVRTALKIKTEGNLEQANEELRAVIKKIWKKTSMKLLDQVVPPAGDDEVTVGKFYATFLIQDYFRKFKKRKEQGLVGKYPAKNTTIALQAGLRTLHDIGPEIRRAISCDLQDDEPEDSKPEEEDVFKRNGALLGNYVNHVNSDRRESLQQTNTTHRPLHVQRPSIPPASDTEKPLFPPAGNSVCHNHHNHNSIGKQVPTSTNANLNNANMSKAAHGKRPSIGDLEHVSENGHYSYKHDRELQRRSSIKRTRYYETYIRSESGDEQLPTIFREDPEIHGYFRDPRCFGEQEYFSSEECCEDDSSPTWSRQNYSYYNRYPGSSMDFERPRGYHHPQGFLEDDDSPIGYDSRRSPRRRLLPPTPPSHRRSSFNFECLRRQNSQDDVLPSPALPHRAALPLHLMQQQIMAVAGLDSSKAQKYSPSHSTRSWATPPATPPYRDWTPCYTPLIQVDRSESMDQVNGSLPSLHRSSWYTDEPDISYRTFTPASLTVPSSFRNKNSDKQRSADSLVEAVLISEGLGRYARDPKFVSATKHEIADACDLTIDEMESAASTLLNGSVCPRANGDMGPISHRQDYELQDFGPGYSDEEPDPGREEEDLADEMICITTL
T4 sequence (P54290 25-944 partner limits assumed): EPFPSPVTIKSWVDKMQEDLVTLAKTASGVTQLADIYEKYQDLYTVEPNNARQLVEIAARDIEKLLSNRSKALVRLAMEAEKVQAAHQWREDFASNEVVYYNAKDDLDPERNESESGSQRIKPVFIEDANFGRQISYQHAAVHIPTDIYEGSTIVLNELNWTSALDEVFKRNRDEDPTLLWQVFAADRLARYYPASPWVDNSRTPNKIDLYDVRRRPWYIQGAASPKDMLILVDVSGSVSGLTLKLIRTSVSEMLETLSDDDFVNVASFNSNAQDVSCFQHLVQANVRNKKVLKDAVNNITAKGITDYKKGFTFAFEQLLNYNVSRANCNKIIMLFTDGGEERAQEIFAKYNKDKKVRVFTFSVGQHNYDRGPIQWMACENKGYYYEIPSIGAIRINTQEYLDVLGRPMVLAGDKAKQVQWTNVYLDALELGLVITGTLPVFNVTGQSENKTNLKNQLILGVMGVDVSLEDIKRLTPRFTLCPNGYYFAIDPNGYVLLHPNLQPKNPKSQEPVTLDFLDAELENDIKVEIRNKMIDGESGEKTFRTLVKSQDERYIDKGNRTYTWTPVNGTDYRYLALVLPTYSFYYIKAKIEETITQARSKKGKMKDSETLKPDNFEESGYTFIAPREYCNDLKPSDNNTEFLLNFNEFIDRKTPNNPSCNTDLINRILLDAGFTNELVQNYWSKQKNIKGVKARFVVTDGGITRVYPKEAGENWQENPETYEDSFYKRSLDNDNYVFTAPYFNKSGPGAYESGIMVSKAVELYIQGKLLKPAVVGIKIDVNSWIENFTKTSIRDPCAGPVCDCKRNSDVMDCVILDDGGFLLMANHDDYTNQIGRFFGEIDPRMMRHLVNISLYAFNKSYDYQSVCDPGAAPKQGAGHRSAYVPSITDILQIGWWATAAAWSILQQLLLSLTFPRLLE
T4 sequence (P54290 945-1091 partner limits assumed): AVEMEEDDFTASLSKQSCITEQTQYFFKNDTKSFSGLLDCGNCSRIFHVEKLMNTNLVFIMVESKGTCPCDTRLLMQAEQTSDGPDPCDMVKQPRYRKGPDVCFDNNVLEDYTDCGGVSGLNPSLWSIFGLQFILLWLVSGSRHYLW

With `CC(C)=CCC/C(C)=C/CC/C(C)=C/CN` [Farnesylamine, (2E,6E)-3,7,11-trimethyldodeca-2,6,10-trien-1-amine], the “activity on KCl-induced arterial contraction” value in data set [1] is listed as “more potent inhibitor of arterial contractions than farnesol”. Further, in data set [2], the “Predicted anti-seizure activity: long-acting (la)” value was “la”. In addition, at L-type Ca^2+ channel, the “reversibility of effect compared with farnesol” value was “relatively less reversible”. Further, on L-type Ca^2+ channel (25 μM, 30 min incubation, 60-min. wash-out, read-out: inhibition of arterial contraction still observed after wash-out), the inhibition at 25 µM is ~80%. The “substrate for monoamine oxidase” value in data set [3] was “specific substrate for monoamine oxidase A”.

In the case of `CC(C)=CCC/C(C)=C/COc1cccc(O)c1` [Geranylresorcinol, (E)-3-(3,7-dimethylocta-2,6-dienyloxy)phenol], the “activity on KCl-induced arterial contraction” value in data set [1] is “strongly inhibits”. Moreover, the “Predicted anti-seizure activity: long-acting (la)” value in data set [2] was “la”. Besides, the “substrate for ADH” value in the data set with ADH [4] is reported as “very poor substrate for ADH”. In data set [5] (non-NGF PC12 cells, fura-2, FIG. 1 / FIG. 3), the “activity on neuronal L-type Ca^2+ channels compared with all-trans farnesol” value is recorded as “strongly inhibits”. For the same compound, the “reversibility of effect compared with farnesol” value on L-type Ca^2+ channel was “less reversible”. Also, the storage stability result in the data set “Storage stability” is recorded as “stable”. For the same compound, in the data set with microsomal FolDH, the “recognition by microsomal FolDH” value is recorded as “not recognized by microsomal FolDH”.

Take `CC1=C(/C=C/C(C)=C/C=C/C(C)=C/CO)C(C)(C)CCC1` [Retinol, (2E,4E,6E,8E)-3,7-dimethyl-9-(2,6,6-trimethylcyclohex-1-enyl)nona-2,4,6,8-tetraen-1-ol]: in [2] (based on effect on L-type Ca^2+ channels, CLogP and reversibility or ADH-FolDH recognition), the Predicted anti-seizure activity result is “++”. Further, the “Predicted anti-seizure activity: long-acting (la)” value in data set [2] is recorded as “la”. In addition, in data set [6], the “Inhibition of N-type currents” value is on record as ~90%. Also, in the data set with ADH [7], the “metabolism by class IV ADH” value is listed as “metabolized by class IV ADH”. Moreover, the IC50 in data set [5] (read-out: IC50 on L-type Ca^2+ channels) came to 5 µM. Further, the “reversibility of effect compared with farnesol” value on L-type Ca^2+ channel is recorded as “significantly less reversible”. Further, the “activity on Ca^2+ channels / smooth muscle L-type channels (literature / prior studies)” value in data set [8] was “blocks efficiently”. Moreover, the “activity on neuronal L-type Ca^2+ channels (literature / prior studies)” value in data set [9] is “blocks efficiently”.
